Assay results reported in US12691112B2, “FGFR tyrosine kinase inhibitors for the treatment of urothelial carcinoma” (Janssen Pharmaceutica NV, priority 2019, dated 2026).

Tests used:
[1] = test system: metastatic or surgically unresectable urothelial cancer harboring select FGFR genetic alterations; test: Phase 2 study NCT02365597: overall survival (Kaplan-Meier); type: in vivo, human
Experimental: The term “overall survival” is defined as the time from first dose to the date of death. Data for patients who are alive or have unknown status is censored at the last date on which the patient is known to be alive.
(§1) Patients were contacted every 12 weeks for survival assessment.
(§2) The study was designed to enroll 180 patients with specified FGFR alterations. Of these, ≥88 were required in the selected regimen. […] Responses were assessed by investigators and an independent radiological review committee. Progression-free survival and overall survival were estimated using Kaplan-Meier product limit method. Data from patients who were progression free and alive or with unknown status were censored at last tumor assessment. Efficacy end points were analysed at primary analysis cut-off.

[2] = Excretion after single oral dose of radiolabeled erdafitinib; type: in vivo
[3] = test system: metastatic or surgically unresectable urothelial cancer harboring select FGFR genetic alterations; test: Phase 2 study NCT02365597: progression-free survival (Kaplan-Meier), investigator assessment; type: in vivo, human
Experimental: The term “progression-free survival” is defined as the time from first dose to date of documented evidence of disease progression or death, whichever comes first.
as §1, §2

[4] = FGFR fusions (excluding mutations), 6 mg QD
[5] = FGFR fusions (excluding mutations), 8 mg QD
[6] = FGFR fusions (excluding mutations), 10 mg 7 on/7 off
[7] = FGFR fusions (excluding mutations), Total
[8] = FGFR mutations (excluding fusions), 6 mg QD
[9] = FGFR mutations (excluding fusions), 8 mg QD
[10] = FGFR mutations (excluding fusions), 10 mg 7 on/7 off
[11] = FGFR mutations (excluding fusions), Total
[12] = FGFR mutations and fusions, 6 mg QD
[13] = FGFR mutations and fusions, 10 mg 7 on/7 off
[14] = FGFR mutations and fusions, Total

## COc1cc(OC)cc(N(CCNC(C)C)c2ccc3ncc(-c4cnn(C)c4)nc3c2)c1 [erdafitinib, N-(3,5-dimethoxy-phenyl)-N′-(1-methylethyl)-N-[3-(1-methyl-1H-pyrazol-4-yl)quinoxalin-6-yl]ethane-1,2-diamine]
[1]; [4]
  6-month overall survival rate (95% CI): 0.80 (0.41, 0.95)
  12-month overall survival rate (95% CI): 0.46 (0.14, 0.73)
  18-month overall survival rate (95% CI): 0.46 (0.14, 0.73)
  Overall survival, Median (95% CI): 9.33 (0.46, NE) months
  Overall survival, Q1: 7.92 months
  Overall survival, Q3: 18.96 months
[1]; [5]
  6-month overall survival rate (95% CI): 0.77 (0.54, 0.90)
  12-month overall survival rate (95% CI): 0.46 (0.24, 0.66)
  Overall survival, Median (95% CI): 10.32 (6.05, NE) months
  Overall survival, Q1: 6.05 months
  Overall survival, Q3: 14.03 months
[1]; [6]
  6-month overall survival rate (95% CI): 1.00 (1.00, 1.00)
  12-month overall survival rate (95% CI): 0.50 (0.01, 0.91)
  18-month overall survival rate (95% CI): 0 (NE, NE)
  24-month overall survival rate (95% CI): 0 (NE, NE)
  Overall survival, Median (95% CI): 10.37 (7.72, 13.01) months
  Overall survival, Q1: 7.72 months
  Overall survival, Q3: 13.01 months
[1]; [7]
  6-month overall survival rate (95% CI): 0.80 (0.62, 0.90)
  12-month overall survival rate (95% CI): 0.46 (0.28, 0.62)
  18-month overall survival rate (95% CI): 0.31 (0.12, 0.52)
  Overall survival, Median (95% CI): 9.33 (7.72, 18.96) months
  Overall survival, Q1: 6.97 months
  Overall survival, Q3: 18.96 months
[1]; [8]
  6-month overall survival rate (95% CI): 0.68 (0.54, 0.79)
  12-month overall survival rate (95% CI): 0.30 (0.18, 0.43)
  18-month overall survival rate (95% CI): 0.21 (0.11, 0.33)
  Overall survival, Median (95% CI): 8.31 (6.41, 9.63) months
  Overall survival, Q1: 5.13 months
  Overall survival, Q3: 14.82 months
[1]; [9]
  6-month overall survival rate (95% CI): 0.74 (0.61, 0.83)
  12-month overall survival rate (95% CI): 0.54 (0.38, 0.68)
  Overall survival, Median (95% CI): 12.02 (8.64, NE) months
  Overall survival, Q1: 5.98, NE months
[1]; [10]
  6-month overall survival rate (95% CI): 0.70 (0.47, 0.84)
  12-month overall survival rate (95% CI): 0.31 (0.14, 0.50)
  18-month overall survival rate (95% CI): 0.26 (0.11, 0.45)
  24-month overall survival rate (95% CI): 0.22 (0.08, 0.40)
  Overall survival, Median (95% CI): 7.39 (5.78, 10.71) months
  Overall survival, Q1: 5.55 months
  Overall survival, Q3: 18.76 months
[1]; [11]
  6-month overall survival rate (95% CI): 0.71 (0.63, 0.78)
  12-month overall survival rate (95% CI): 0.39 (0.30, 0.48)
  18-month overall survival rate (95% CI): 0.29 (0.20, 0.39)
  24-month overall survival rate (95% CI): 0.24 (0.15, 0.35)
  Overall survival, Median (95% CI): 9.10 (7.46, 11.86) months
  Overall survival, Q1: 5.49 months
  Overall survival, Q3: 18.76 months
[1]; [12]
  6-month overall survival rate (95% CI): 0.75 (0.13, 0.96)
  12-month overall survival rate (95% CI): 0.75 (0.13, 0.96)
  18-month overall survival rate (95% CI): 0.38 (0.01, 0.81)
  Overall survival, Median (95% CI): 12.65 (0.39, NE) months
  Overall survival, Q1: 6.52, NE months
[1]; [13]
  6-month overall survival rate (95% CI): 0.67 (0.05, 0.95)
  12-month overall survival rate (95% CI): 0 (NE, NE)
  18-month overall survival rate (95% CI): 0 (NE, NE)
  24-month overall survival rate (95% CI): 0 (NE, NE)
  Overall survival, Median (95% CI): 6.21 (3.98, 9.10) months
  Overall survival, Q1: 3.98 months
  Overall survival, Q3: 9.10 months
[1]; [14]
  6-month overall survival rate (95% CI): 0.71 (0.26, 0.92)
  12-month overall survival rate (95% CI): 0.43 (0.10, 0.73)
  18-month overall survival rate (95% CI): 0.21 (0.01, 0.59)
  Overall survival, Median (95% CI): 9.10 (0.39, NE) months
  Overall survival, Q1: 3.98 months
  Overall survival, Q3: 12.65 months
[1]; Regimen 1, 10 mg intermittent
  Median overall survival (95% CI): 7.5 (6.0 to 10.7) months
  overall survival rate at 12 months: 31%
[1]; Regimen 2, 6 mg continuous
  Median overall survival (95% CI): 8.6 (6.5 to 9.7) months
  overall survival rate at 12 months: 33%
[1]; Regimen 3, 8 mg continuous
  Survival rate at 12 months: 55%
  median overall survival: 13.8 months
[2]
  dose recovered in feces: approximately 69%
  dose recovered in feces as unchanged: 19%
  dose recovered in urine: 19%
  dose recovered in urine as unchanged: 13%
[3]; [4]
  6-month progression-free survival rate (95% CI): 0.40 (0.12, 0.67)
  12-month progression-free survival rate (95% CI): 0.20 (0.03, 0.47)
  18-month progression-free survival rate (95% CI): 0.10 (0.01, 0.36)
  Progression-free survival, Median (95% CI): 5.54 (0.46, 11.10) months
  Progression-free survival, Q1: 4.50 months
[3]; [5]
  6-month progression-free survival rate (95% CI): 0.25 (0.10, 0.44)
  12-month progression-free survival rate (95% CI): 0.15 (0.04, 0.33)
  18-month progression-free survival rate (95% CI): 0 (NE, NE)
  Progression-free survival, Median (95% CI): 2.76 (1.51, 5.45) months
  Progression-free survival, Q1: 1.35 months
  Progression-free survival, Q3: 6.64 months
[3]; [6]
  6-month progression-free survival rate (95% CI): 0 (NE, NE)
  12-month progression-free survival rate (95% CI): 0 (NE, NE)
  18-month progression-free survival rate (95% CI): 0 (NE, NE)
  Progression-free survival, Median (95% CI): 2.09 (1.41, 2.76) months
  Progression-free survival, Q1: 1.41 months
  Progression-free survival, Q3: 2.76 months
[3]; [7]
  6-month progression-free survival rate (95% CI): 0.28 (0.15, 0.44)
  12-month progression-free survival rate (95% CI): 0.15 (0.05, 0.29)
  18-month progression-free survival rate (95% CI): 0.05 (0.00, 0.19)
  Progression-free survival, Median (95% CI): 4.27 (2.56, 5.52) months
  Progression-free survival, Q1: 1.51 months
  Progression-free survival, Q3: 7.00 months
[3]; [8]
  6-month progression-free survival rate (95% CI): 0.22 (0.12, 0.33)
  12-month progression-free survival rate (95% CI): 0.07 (0.02, 0.16)
  18-month progression-free survival rate (95% CI): 0.05 (0.01, 0.14)
  Progression-free survival, Median (95% CI): 5.09 (2.83, 5.42) months
  Progression-free survival, Q1: 1.77 months
  Progression-free survival, Q3: 5.55 months
[3]; [9]
  6-month progression-free survival rate (95% CI): 0.41 (0.29, 0.53)
  12-month progression-free survival rate (95% CI): 0.15 (0.06, 0.27)
  Progression-free survival, Median (95% CI): 5.55 (4.83, 7.26) months
  Progression-free survival, Q1: 2.83 months
  Progression-free survival, Q3: 8.44 months
[3]; [10]
  6-month progression-free survival rate (95% CI): 0.25 (0.10, 0.43)
  12-month progression-free survival rate (95% CI): 0.17 (0.05, 0.34)
  18-month progression-free survival rate (95% CI): 0.08 (0.01, 0.23)
  Progression-free survival, Median (95% CI): 4.93 (2.73, 5.55) months
  Progression-free survival, Q1: 2.69 months
  Progression-free survival, Q3: 7.06 months
[3]; [11]
  6-month progression-free survival rate (95% CI): 0.31 (0.24, 0.39)
  12-month progression-free survival rate (95% CI): 0.12 (0.07, 0.19)
  18-month progression-free survival rate (95% CI): 0.06 (0.03, 0.12)
  Progression-free survival, Median (95% CI): 5.36 (4.21, 5.52) months
  Progression-free survival, Q1: 2.73 months
  Progression-free survival, Q3: 8.25 months
[3]; [12]
  6-month progression-free survival rate (95% CI): 0.50 (0.06, 0.84)
  12-month progression-free survival rate (95% CI): 0.50 (0.06, 0.84)
  Progression-free survival, Median (95% CI): 9.10 (0.39, NE) months
  Progression-free survival, Q1: 2.97, NE months
[3]; [13]
  6-month progression-free survival rate (95% CI): 0 (NE, NE)
  12-month progression-free survival rate (95% CI): 0 (NE, NE)
  18-month progression-free survival rate (95% CI): 0 (NE, NE)
  Progression-free survival, Median (95% CI): 5.45 (1.45, 5.52) months
  Progression-free survival, Q1: 1.45 months
  Progression-free survival, Q3: 5.52 months
[3]; [14]
  6-month progression-free survival rate (95% CI): 0.29 (0.04, 0.61)
  12-month progression-free survival rate (95% CI): 0.29 (0.04, 0.61)
  Progression-free survival, Median (95% CI): 5.52 (0.39, 12.65) months
  Progression-free survival, Q1: 1.45 months
  Progression-free survival, Q3: 12.65 months
[3]; Regimen 1, 10 mg intermittent
  Median (95% CI) progression-free survival per investigator assessment: 4.8 (2.7 to 5.5) months
  Progression-free survival rate at 12 months: 18%
[3]; Regimen 2, 6 mg continuous
  Median (95% CI) progression-free survival per investigator assessment: 5.3 (4.1 to 5.5) months
  Progression-free survival rate at 12 months: 11%
[3]; Regimen 3, 8 mg continuous
  Progression-free survival rate at 12 months: 19%
  median progression-free survival: 5.5 months
